Source: patent US20220040183A1, “USE OF INHIBITORS OF STRESS GRANULE FORMATION FOR TARGETING THE REGULATION OF IMMUNE RESPONSES” (INSERM (Institut National de la Santé et de la Recherche …, priority 2018, published 2022)

Test system: PD-1, LAG3 and TIM3 expression by CD3+ T cells
Assay: Cell-based assay of immune checkpoint expression by T lymphocytes (flow cytometry)
Design: species or system human
Settings: for PD-1, LAG3 and TIM3 expression by CD3+ T cells: PBMC activated with CD3/CD28 antibodies-coated beads, stimulated for 3 days, FIG. 4; for co-expression profile of PD-1, LAG3 and TIM3 immune checkpoint receptors on activated CD3+ T cells: healthy donors PBMC, FIG. 5, representative of n=6
Source text: PBMC were obtained from human healthy donors (Etablissement Français du Sang, Toulouse, France) after Ficoll-Hypaque (GE Healthcare) density centrifugation and cultured in RPMI 1640 medium (ThermoFisher Scientific) supplemented with 10% fetal bovine serum (ThermoFisher Scientific) and L-glutamine (SIGMA Aldrich).
Cell-Based Assay of Immune Checkpoint Expression by T Lymphocytes.
PBMC isolated from healthy donors were activated with CD3/CD28 antibodies-coated beads (ThermoFisher Scientific). When drugs were used (A-92 (1 μM) or GSK2606414 (GSK, 10 μM)), they were added simultaneously to the stimulation. After 3 days of in vitro culture, cells were processed for qRT-PCR, immunoblotting or flow cytometry analysis.

SMILES | PD-1, LAG3 and TIM3 expression by CD3+ T cells (A-92 1 μM) | co-expression profile of PD-1, LAG3 and TIM3 immune checkpoint receptors on activated CD3+ T cells (A-92 1 μM) | PD-1, LAG3 and TIM3 expression by CD3+ T cells (GSK2606414 10 μM) | co-expression profile of PD-1, LAG3 and TIM3 immune checkpoint receptors on activated CD3+ T cells (GSK2606414 10 μM)
c1nn(C2CCOCC2)cc1Nc1ncc2nnn(-c3ccc4cn[nH]c4c3)c2n1 [A-92, 3-(1H-indazol-6-yl)-N-[1-(oxan-4-yl)pyrazol-4-yl]triazolo[4,5-d]pyrimidin-5-amine] | impair immune checkpoints expression | impair immune checkpoints expression simultaneously |  | 
Cn1cc(-c2ccc3c(c2)CCN3C(=O)Cc2cccc(C(F)(F)F)c2)c2c(N)ncnc21 [GSK2606414, 1-[5-(4-amino-7-methylpyrrolo[2,3-d]pyrimidin-5-yl)-2,3-dihydroindol-1-yl]-2-[3-(trifluoromethyl)phenyl]ethanone] |  |  | impair immune checkpoints expression | impair immune checkpoints expression simultaneously
